Structures can show the parent of a compound that is named as a salt. Where two headings read alike, the source gives them in different places.
Tests used:
HTT mRNA = assay: Splicing RT-qPCR assay, HTT canonical (CJ) and alternative (AJ) junction mRNA; type: cell-based, human; conditions: Homo sapiens; for IC50: canonical junction mRNA; for AC50: alternative junction mRNA, read-out: HTT AJ (AC50, increase in AJ mRNA)
Method: (§1) Compounds described herein were used to modulate RNA transcript abundance in cells. The expression of a target mRNA was measured by detecting the formation of an exon-exon junction in the canonical transcript (CJ). A compound mediated exon-inclusion event was detected by observing an increase in formation of a new junction with an alternative exon (AJ). Real-time qPCR assays were used to detect these splicing switches and interrogate the potency of various compounds towards different target genes. A high-throughput real time quantitative PCR (RT-qPCR) assay was developed to measure these two isoforms of the mRNA (CJ and AJ) for exemplary genes, such as HTT, SMN2, and MYB, together with a control housekeeping gene, GAPDH or GUSB or PPIA, used for normalization. Briefly, the A673 or K562 cell line was treated with various compounds described herein (e.g., compounds of Formula (D). After treatment, the levels of the HTT, MYB, or SMN2 mRNA targets were determined from each sample of cell lysate by cDNA synthesis followed by qPCR.
(§2) • Cells-to-CT 1-step kit: ThermoFisher A25602, Cells-to-CT lysis reagent: ThermoFisher 4391851C, TaqMan™ Fast Virus 1-Step Master Mix: ThermoFisher 4444436 • GAPDH: VIC-PL, ThermoFisher 4326317E (Assay: Hs99999905_m1)—used for K562/suspension cell lines • GUSB: VIC-PL, ThermoFisher 4326320E (Assay: Hs99999908_m1)—used for K562/suspension cell lines • PPIA: VIC-PL, ThermoFisher 4326316E (Assay: Hs99999904_m1)—used for A673/adherent cell lines
(§3) The A673 cell line was cultured in DMEM with 10% FBS. Cells were diluted with full growth media and plated in a 96-well plate (15,000 cells in 100 ul media per well). The plate was incubated at 37° C. with 5% CO2 for 24 hours to allow cells to adhere. An 11-point 3-fold serial dilution of the compounds was made in DMSO then diluted in media in an intermediate plate. Compounds were transferred from the intermediate plate to the cell plate with the top dose at a final concentration of 10 uM in the well. Final DMSO concentration was kept at or below 0.25%. The cell plate was returned to the incubator at 37° C. with 5% CO2 for an additional 24 hours.
(§4) The K562 cell line was cultured in IMDM with 10% FBS. For K562, cells were diluted with full growth media and plated in either a 96-well plate (50,000 cells in 50 uL media per well) or a 384-well plate (8,000-40,000 cells in 45 uL media per well). An 11-point 3-fold serial dilution of the compounds were made in DMSO then diluted in media in an intermediate plate. Compound was transferred from the intermediate plate to the cell plate with the top dose at a final concentration of 10 uM in the well. Final DMSO concentration was kept at or below 0.25%. Final volume was 100 uL for 96-well plate and 50 uL for 384-well plate. The cell plate was then placed in an incubator at 37° C. with 5% CO2 for 24 hours.
(§5) The cells were then gently washed with 50 uL-100 uL cold PBS before proceeding to addition of lysis buffer. 30 uL-50 μL of room temperature lysis buffer with DNAse I (and optionally RNAsin) was added to each well. Cells were shaken/mixed thoroughly at room temperature for 5-10 minutes for lysis to take place and then 3 uL-5 μL of room temperature stop solution was added and wells were shaken/mixed again. After 2-5 minutes, the cell lysate plate was transferred to ice for RT-qPCR reaction setup. The lysates could also be frozen at −80° C. for later use.
(§6) In some cases, a direct lysis buffer was used. An appropriate volume of 3× lysis buffer (10 mM Tris, 150 mM NaCl, 1.5%-2.5% Igepal and 0.1-1 U/uL RNAsin, pH 7.4) was directly added to either K562 or A673 cells in media and mixed by pipetting 3 times. The plates were then incubated at room temperature with shaking/rocking for 20-50 minutes to allow for lysis to take place. After this time, the cell lysate plate was transferred to ice to set up for the RT-qPCR reactions. The lysates could also be frozen at −80° C. for later use. […]

MYB mRNA = assay: Splicing RT-qPCR assay, MYB canonical (CJ) and alternative (AJ) junction mRNA; type: cell-based, human; conditions: Homo sapiens; for IC50: canonical junction mRNA; for AC50: alternative junction mRNA, read-out: MYB AJ (AC50, increase in AJ mRNA)
Method: as §1, §2, §3, §4, §5, §6

SMN2 mRNA = assay: Splicing RT-qPCR panel, SMN2 canonical junction (CJ) mRNA; type: cell-based, human; conditions: Homo sapiens, read-out: SMN2 CJ (decrease in CJ mRNA levels, IC50)
Method: as §1, §3, §4, §5
(§7) In some cases, a direct lysis buffer was used. An appropriate volume of 3× lysis buffer (10 mM Tris, 150 mM NaCl, 1.5%-2.5% Igepal and 0.1-1 U/uL RNAsin, pH 7.4) was directly added to either K562 or A673 cells in media and mixed by pipetting 3 times. The plates were then incubated at room temperature with shaking/rocking for 20-50 minutes to allow for lysis to take place. After this time, the cell lysate plate was transferred to ice to set up for the RT-qPCR reactions. The lysates could also be frozen at −80° C. for later use.
(§8) To set up 10 uL RT-qPCR reactions, cell lysates were transferred to 384-well qPCR plates containing the master mix according to the table below. The plates were sealed, gently vortexed, and spun down before the run. The volumes were adjusted accordingly in some instances where the reaction was carried in 20 μL. The table below summarizes the components of the RT-qPCR reactions:
(§9) The RT-qPCR reaction was performed using a QuantStudio (ThermoFisher) under the following fast cycling conditions. […]

Target C mRNA = assay: Splicing RT-qPCR panel, Target C canonical junction (CJ) mRNA; type: cell-based, human; conditions: Homo sapiens, read-out: Target C CJ (decrease in CJ mRNA levels, IC50)
Method: as §1, §3, §4, §5, §7, §8, §9

K562 cells = assay: Cell viability, Cell Titer Glo 2.0 assay, K562; conditions: 72 hours
Method: Compounds described herein were screened for toxicity in K562 (human chronic myelogenous leukemia) and SH-SY5Y (human neuroblastoma) cells using a Cell Titer Glo 2.0 assay.
• Promega CellTiter-Glo® 2.0 Cell Viability Assay (cat #G9241) • Corning 384-well TC-treated microplates (cat #3570)
Cells were plated at 500 cells/well (K562 cells) in 45 μL of IMDM supplemented with 10% FBS in a 384-well opaque plate. Wells containing only medium were used as a blank control. Test compounds (e.g., compounds of Formula (I) or (II)) were first serially diluted in DMSO then diluted 1:100 with IMDM+10% FBS. The final concentration of DMSO was 0.1% in each well. The cells were incubated for 72 hours at 37° C. and 5% CO2 before assaying with Cell Titer Glo 2.0 reagent.

[1] = 24 h, RT-qPCR, A673 or K562 cells, 24 hours treatment, read-out: HTT CJ (IC50, decrease in CJ mRNA)
[2] = qPCR panel, read-out: HTT CJ (decrease in CJ mRNA levels, IC50)
[3] = RT-qPCR, A673 or K562 cells, 24 hours treatment
[4] = qPCR panel, read-out: MYB CJ (decrease in CJ mRNA levels, IC50)
[5] = RT-qPCR, A673 or K562 cells, 24 hours treatment, read-out: MYB CJ (IC50, decrease in CJ mRNA)

SMILES	IC50 (HTT mRNA; [1])	IC50 (HTT mRNA; [2])	IC50 (MYB mRNA; [4])	IC50 (MYB mRNA; [5])	IC50 (SMN2 mRNA)	IC50 (Target C mRNA)	AC50 (HTT mRNA; [3])	AC50 (MYB mRNA; [3])	Effect on Cell Viability, K562 (K562 cells)
COc1cc(-c2cc3cn(C)nc3c(C)c2O)nc2ncc(N3CCNCC3)cc12 [Compound 152, 5-(4-methoxy-6-(piperazin-1-yl)-1,8-naphthyridin-2-yl)-2,7-dimethyl-2H-indazol-6-ol 2,2,2-trifluoroacetate]	0.1 to 1 µM	0.1 to 1 µM	0.1 to 1 µM	0.1 to 1 µM	< 0.1 µM	1 to 10 µM	1 to 10 µM	0.1 to 1 µM	B (100-1000 nM)
CN(C)C1CCN(c2ccc3nc(-c4cc5cn(C)nc5c(F)c4O)cnc3c2)CC1 [Compound 360, 5-{6-[4-(dimethylamino)piperidin-1-yl]quinoxalin-2-yl}-7-fluoro-2-methylindazol-6-ol]	0.1 to 1 µM	0.1 to 1 µM	< 0.1 µM	< 0.1 µM	< 0.1 µM	1 to 10 µM	> 10 µM	0.1 to 1 µM	B (100-1000 nM)
Cc1cn2cc(-c3ccc4cc(N(C)[C@@H]5CCNC5)cnc4n3)cc(F)c2n1 [Compound 361, 7-{8-fluoro-2-methylimidazo[1,2-a]pyridin-6-yl}-N-methyl-N-[(3R)-pyrrolidin-3-yl]-1,8-naphthyridin-3-amine hydrochloride]	> 10 µM	> 10 µM	> 10 µM	> 10 µM	> 10 µM	> 10 µM	> 10 µM	> 10 µM	C (1000-9999 nM)
C[C@@H]1CN(c2cnc3nc(-c4cc5cn(C)nc5cc4O)cc(C4CC4)c3c2)C[C@H](C)N1 [Compound 364, 5-{4-cyclopropyl-6-[(3R,5S)-3,5-dimethylpiperazin-1-yl]-1,8-naphthyridin-2-yl}-2-methylindazol-6-ol hydrochloride]	< 0.1 µM	< 0.1 µM	< 0.1 µM	< 0.1 µM	< 0.1 µM	0.1 to 1 µM	0.1 to 1 µM	0.1 to 1 µM	C (1000-9999 nM)

Continued, in another order:

IC50 (HTT mRNA; [1])	IC50 (HTT mRNA; [2])	IC50 (MYB mRNA; [4])	IC50 (MYB mRNA; [5])	IC50 (SMN2 mRNA)	IC50 (Target C mRNA)	SMILES	AC50 (HTT mRNA; [3])	AC50 (MYB mRNA; [3])	Effect on Cell Viability, K562 (K562 cells)
> 10 µM	> 10 µM	1 to 10 µM	1 to 10 µM	0.1 to 1 µM	> 10 µM	CN(c1cnc2nc(-c3cc(F)c4nn(C)cc4c3)ccc2c1)[C@@H]1CCNC1 [Compound 366, 7-(7-fluoro-2-methylindazol-5-yl)-N-methyl-N-[(3R)-pyrrolidin-3-yl]-1,8-naphthyridin-3-amine]	> 10 µM	0.1 to 1 µM	C (1000-9999 nM)
> 10 µM	> 10 µM	1 to 10 µM	1 to 10 µM	0.1 to 1 µM	> 10 µM	CN(c1cnc2nc(-c3cc(F)c4nn(C)cc4c3)ccc2c1)[C@H]1CCNC1 [Compound 367, 7-(7-fluoro-2-methylindazol-5-yl)-N-methyl-N-[(3S)-pyrrolidin-3-yl]-1,8-naphthyridin-3-amine]	> 10 µM	1 to 10 µM	C (1000-9999 nM)
1 to 10 µM	1 to 10 µM	0.1 to 1 µM	0.1 to 1 µM	< 0.1 µM	1 to 10 µM	COc1nc(-c2cc3cn(C)nc3c(C)c2O)nc2ncc(N3C[C@@H](C)N[C@@H](C)C3)cc12 [Compound 369]	1 to 10 µM	0.1 to 1 µM	B (100-1000 nM)
> 10 µM	> 10 µM	0.1 to 1 µM	0.1 to 1 µM	< 0.1 µM	> 10 µM	CN1CCC[C@H]2CN(c3cnc4nc(-c5cc6cn(C)nc6cc5O)cc(Cl)c4c3)C[C@H]21 [Compound 372, 5-{6-[(4aS,7aS)-1-methyl-hexahydro-2H-pyrrolo[3,4-b]pyridin-6-yl]-4-chloro-1,8-naphthyridin-2-yl}-2-methylindazol-6-ol]	> 10 µM	0.1 to 1 µM	B (100-1000 nM)
